Patent US20230118497A1, “PYRAZOLE-CONTAINING POLYCYCLIC DERIVATIVE INHIBITOR, PREPARATION METHOD THEREFOR AND APPLICATION THEREOF” (Shanghai Hansoh Biomedical Co., Ltd., priority 2019, published 2023)

What was measured:
[1] = Metabolic stability in liver microsome (mouse); type: in vitro ADME; settings: mouse liver microsome 0.5 mg/mL, compound 1 μM; for half-life at 1 μM: liver microsomes, NADPH/UDPGA
Description: (§1) Test Example 5. Assay of Metabolic Stability in Liver Microsome
(§2) The objective of the experiment is to determine the stability of the compounds of the Examples in liver microsome of mouse, rat, dog and human.
(§3) Formulation of the working solution of the compound: The stock solution of the compound was added to phosphate buffer, and the final concentration was 20 μM.
(§4) Liver microsome was diluted with 100 mM phosphate buffer to obtain a final concentration of 0.625 mg/mL.
(§5) NADPH (reduced nicotinamide adenine dinucleotide phosphate) and UDPGA (uridine diphosphate glucuronic acid) were weighed respectively, followed by addition of 100 mM phosphate buffer. The final concentrations were 20 mM.
(§6) 1 mg of Alamethicin was weighed, to which 200 μL of DMSO was added to obtain a 5 mg/mL solution. The solution was diluted with phosphate buffer to obtain a final concentration of 50 μg/mL.
(§7) 2.5 Formulation of the reaction stop solution Stop solution: Cold acetonitrile containing 100 ng/mL labetalol hydrochloride and 400 ng/mL tolbutamide as internal standards.
(§8) 400 μL of the prepared liver microsome, 25 μL of the working solution of the compound and 25 μL of Alamethicin were added to a 96-well plate successively, which was then pre-incubated at 37° C. for 10 min. 50 μL of the prepared NADPH/UDPGA was added to initiate the reaction, and the plate was incubated at 37° C. The total volume of the reaction system was 500 μL. The final contents of the components were as follows: […]

[2] = Pharmacokinetic assay in Balb/C mice; type: in vivo; settings: male, mouse, po, p.o. 5 mg/kg, plasma, 0.5% CMC-Na (1% Tween 80); for AUC(0-t): read-out: Area under curve AUC0-t; for MRT inf: read-out: Average residence time MRT0-∞; for half-life: read-out: Half life t1/2 (converted); for Tmax: read-out: Peak time tmax; for Cmax: read-out: Plasma concentration Cmax
Description: Test Example 3. Pharmacokinetic Assay in Balb/C Mice
Balb/C mice were used as test animals. The pharmacokinetic behavior of the compounds of Examples was studied in mouse body (plasma) by orally administration at a dose of 5 mg/kg.
Male Balb/C mice (6 mice per group), purchased from Shanghai Jiesijie Laboratory Animal Co., LTD, with Certificate No.: SCXK (Shanghai) 2013-0006 N0.311620400001794.
(§9) 5 g of hydroxyethyl cellulose (HEC, CMC-Na, viscosity: 800-1200 Cps) was weighed and dissolved in 1000 mL of purified water, followed by addition of 10 g of Tween80.
After an overnight fast, male Balb/C mice were administered p.o. with the test compound at a dose of 5 mg/kg and a volume of 10 mL/kg.
(§10) 0.04 mL of blood was taken from the orbit of the mouse before administration and at 0, 0.5, 1, 2, 4, 6, 8 and 24 hours after administration. The samples were stored in EDTA-K2 tubes, and centrifuged for 6 minutes at 4° C., 6000 rpm to separate the plasma. The plasma samples were stored at −80° C.
1) 160 μL of acetonitrile was added to 20 μL of the plasma sample for precipitation, and then the mixture was centrifuged at 3500×g for 5 to 20 minutes. 2) After the above process, 100 μL of the supernatant was taken to analyze the concentration of the test compound by LC/MS/MS.
(§11) 2.7 Liquid Chromatography Analysis • Liquid chromatography condition: Shimadzu LC-20AD pump • Mass spectrometry condition: AB Sciex API 4000 mass spectrometer • Chromatographic column: phenomenex Gemiu 5 um C18 50×4.6 mm • Mobile phase: Eluent A was 0.1% formic acid in water, and Eluent B was acetonitrile • Flow rate: 0.8 mL/min • Elution time: 0-4.0 minutes the eluent is as follows:
(§12) The main parameters of pharmacokinetics were calculated by WinNonlin 8.2.

[3] = Plasma protein binding rate (mouse); type: in vitro ADME; settings: 37° C. 6 h
Description: (§13) Test Example 6. Assay of Plasma Protein Binding Rate
(§14) The objective of the experiment is to determine the plasma protein binding of the compounds of the Examples in plasma.
(§15) The compound of the Example was formulated into 1 mM solution A with DMSO;
(§16) The solution A was added to the plasma solution to obtain 5 μM solution B;
(§17) 1) 200 μL of solution B was added to the inside of the membrane;
(§18) 2) […] of PBS was added to the outside of the membrane;
(§19) 3) Incubation in a water bath at 37° C. for 6 h;
(§20) 4) The sample was diluted and analyzed by mass spectrometry.

[4] = Metabolic stability in liver microsome (human); type: in vitro ADME; settings: human liver microsome 0.5 mg/mL, compound 1 μM; for half-life at 1 μM: liver microsomes; for half-life at 1 μM / t1/2: NADPH/UDPGA
Description: as §1, §2, §3, §4, §5, §6, §7, §8

[5] = Pharmacokinetic assay in rats; type: in vivo; settings: male, rat, po, SD rats, p.o. 5 mg/kg, plasma, 0.5% CMC-Na (1% Tween 80); for AUC(0-t): read-out: Area under curve AUC0-t; for MRT inf: read-out: Average residence time MRT0-∞; for half-life: read-out: Half life t1/2 (converted); for Tmax: read-out: Peak time tmax; for Cmax: read-out: Plasma concentration Cmax
Description: Test Example 4. Pharmacokinetic Assay in Rats
SD rats were used as test animals. The pharmacokinetic behavior of the compounds of Examples was studied in rat body (plasma) by orally administration at a dose of 5 mg/kg.
Male SD rats (3 rats per group), purchased from Shanghai Jiesijie Laboratory Animal Co., LTD, with Certificate No.: SCXK (Shanghai) 2013-0006 N0.311620400001794.
as §9
After an overnight fast, male SD rats (3 rats per group) were administered p.o. with the test compound at a dose of 5 mg/kg and a volume of 10 mL/kg.
as §10, with “0.2” for “0.04”, “jugular vein” for “orbit”, “rat” for “mouse”
1) 160 μL of acetonitrile was added to 40 μL of the plasma sample for precipitation, and then the mixture was centrifuged at 3500×g for 5 to 20 minutes.
2) After the above process, 100 μL of the supernatant was taken to analyze the concentration of the test compound by LC/MS/MS.
as §11, with “minutes,” for “minutes”
as §12

[6] = Plasma protein binding rate (rat); type: in vitro ADME; settings: 37° C. 6 h
Description: as §13, §14, §15, §16, §17, §18, §19, §20

| SMILES | half-life at 1 μM [1] | Remaining (%, 60 min) [1] | AUC(0-t) [2] | MRT inf [2] | half-life [2] | Tmax [2] | Cmax [2] | fraction unbound at 6 h, 5 μM [3] | Remaining (%, 60 min) [4] | half-life at 1 μM [4] | AUC(0-t) [5] | MRT inf [5] | half-life [5] | Tmax [5] | Cmax [5] | fraction unbound at 6 h, 5 μM [6] | t1/2 [4] |
| --- | --- | --- | --- | --- | --- | --- | --- | --- | --- | --- | --- | --- | --- | --- | --- | --- | --- |
| N#Cc1cc2n(CC(=O)Nc3ccc(F)cn3)c(=O)c3ccc(C(F)(F)F)nc3n2n1 [Example 68, 2-(2-Cyano-5-oxo-8-(trifluoromethyl)pyrazolo[1,5-a]pyrido[3,2-e]pyrimidin-4(5H)-yl)-N-(5-fluoropyridin-2-yl)acetamide] | 2.75 h | 91.6% | 10200 ng·h/mL | 3.8 h | 1.8 h | 2 h | 1830 ng/mL | 0.162 | 101.2% | 23.4 h | 9850 ng·h/mL | 3.5 h | 1.8 h | 4 h | 1880 ng/mL | 0.11 |  |
| N#Cc1cnn2c3nc(C(F)(F)F)ccc3c(=O)n(CC(=O)Nc3ccc(F)cn3)c12 [Example 80, 2-(3-Cyano-5-oxo-8-(trifluoromethyl)pyrazolo[1,5-a]pyrido[3,2-e]pyrimidin-4(5H)-yl)-N-(5-fluoropyridin-2-yl)acetamide] |  |  |  |  |  |  |  | 0.256 |  |  | 21300 ng·h/mL | 13.6 h | 11.3 h | 4 h | 2190 ng/mL | 0.234 |  |
| O=C(Cn1c(=O)c2ccc(C(F)(F)F)nc2n2nc(Br)cc12)Nc1ccc(F)cn1 [Example 61-A, 2-(2-bromo-5-oxo-8-(trifluoromethyl)pyrazolo[1,5-a]pyrido[3,2-e]pyrimidin-4(5H)-yl)-N-(5-fluoropyridin-2-yl)acetamide] | 6.82 h | 92.5% | 30500 ng·h/mL | 5.6 h | 4.6 h | 2 h | 3430 ng/mL | 0.044 | 100.4% |  | 12000 ng·h/mL | 5.8 h | 8 h | 2 h | 1550 ng/mL | 0.027 | ∞ |
| CCc1cc2n(CC(=O)Nc3ccc(F)cn3)c(=O)c3ccc(C(F)(F)F)nc3n2n1 [Example 34, 2-(2-Ethyl-5-oxo-8-(trifluoromethyl)pyrazolo[1,5-a]pyrido[3,2-e]pyrimidin-4(5H)-yl)-N-(5-fluoropyridin-2-yl)acetamide] | 3.11 h | 81.3% | 7580 ng·h/mL | 2.3 h | 1.4 h | 1 h | 2360 ng/mL | 0.043 | 113.9% |  | 5780 ng·h/mL | 6.2 h | 3.5 h | 4 h | 904 ng/mL | 0.044 | ∞ |
| O=C(Cn1c(=O)c2ccc(C(F)(F)F)nc2n2nccc12)Nc1ccc(F)cn1 [Example 78, N-(5-Fluoropyridin-2-yl)-2-(5-oxo-8-(trifluoromethyl)pyrazolo[1,5-a]pyrido[3,2-e]pyrimidin-4(5H)-yl)acetamide] | 568 h | 99.3% | 5040 ng·h/mL | 2.5 h | 1.6 h | 1 h | 1290 ng/mL | 0.084 | 97.5% | 14.7 h | 6810 ng·h/mL | 3.7 h | 1.7 h | 2 h | 1220 ng/mL | 0.061 |  |
